Experimental data published in patent US20120301457A1 (priority 2010, published 2012).

The molecules below were run against recombinant mouse PrP (Mus musculus, UniProt P04925).
Type: biochemical

Molecule | ability to facilitate amplification and propagation of PrP^Sc
phosphatidylglycerol | facilitate prion amplification to a lesser extent
phosphatidic acid | facilitate prion amplification to a lesser extent
phosphatidylinositol | facilitate prion amplification to a lesser extent
CCCCCCCCCCCCCCCC(=O)OC[C@H](COP(=O)(O)OCCN)OC(=O)CCCCCCCCCCCNc1ccc([N+](=O)[O-])c2nonc12 [16:0-12:0 NBD PE, 1-palmitoyl-2-{12-[(7-nitro-2-1,3-benzoxadiazol-4-yl)amino]lauroyl}-sn-glycero-3-phosphoethanolamine] | successfully facilitated propagation
phosphatidylcholine | facilitate prion amplification to a lesser extent
CCCCC/C=C\C/C=C\C/C=C\C/C=C\CCCC(=O)O[C@H](CO/C=C\CCCCCCCCCCCCCCCC)COP(=O)(O)OCCN [C18(Plasm)-20:4 PE, 1-(1Z-octadecenyl)-2-arachidonoyl-sn-glycero-3-phosphoethanolamine] | successfully facilitated propagation
CCCCCCCC/C=C\CCCCCCCC(=O)O[C@H](CO/C=C\CCCCCCCCCCCCCCCC)COP(=O)(O)OCCN [C18(Plasm)-18:1 PE, 1-(1Z-octadecenyl)-2-oleoyl-sn-glycero-3-phosphoethanolamine] | successfully facilitated propagation
cerebrosides | facilitate prion amplification to a lesser extent
phosphatidylserine | facilitate prion amplification to a lesser extent
CCCCCCCC/C=C\CCCCCCCC(=O)O[C@H](COC(=O)CCCCCCCCCCCCCCC)COP(=O)(O)OCCN [16:0-18:1 PE, 1-palmitoyl-2-oleoyl-sn-glycero-3-phosphoethanolamine] | successfully facilitated propagation
sulfatides | facilitate prion amplification to a lesser extent
